Columns and labels:
[1] = tested on: Du145 prostate cancer cells
[2] = tested on: RWPE benign prostate cells
[3] = tested on: PCAT-14 expression in VCaP and LNCaP cells; test: Androgen treatment (R1881), ncRNA expression by qPCR; format: cell-based, human; details: 5 nM R1881, androgen responsive VCaP and LNCaP cells
Source text: The benign immortalized prostate cell line RWPE as well as PC3, Du145, LNCaP, VCaP, 22Rv1, CWR22, C4-2B, NCI-660, MDA PCa 2b, WPMY-1, and LAPC-4 prostate cell lines were obtained from the American Type Culture Collection (Manassas, Va.). Benign non-immortalized prostate epithelial cells (PrEC) and prostate smooth muscle cells (PrSMC) were obtained from Lonza (Basel, Switzerland). Cell lines were maintained using standard media and conditions. For androgen treatment experiments, LNCaP and VCaP cells were grown in androgen depleted media lacking phenol red and supplemented with 10% charcoal-stripped serum and 1% penicillin-streptomycin. After 48 hours, cells were treated with 5 nM methyltrienolone (R1881, NEN Life Science Products) or an equivalent volume of ethanol. Cells were harvested for RNA at 6, 24, and 48 hours post-treatment. Prostate tissues were obtained from the radical prostatectomy series and Rapid Autopsy Program at the University of Michigan tissue core. These programs are part of the University of Michigan Prostate Cancer Specialized Program Of Research Excellence (S.P.O.R.E.). […]
Quantitative Real-time PCR (qPCR) was performed using Power SYBR Green Mastermix (Applied Biosystems, Foster City, Calif.) on an Applied Biosystems 7900HT Real-Time PCR System. […] Fold changes were calculated relative to GAPDH and normalized to the median value of the benign samples.

| Compound | sensitivity to PARP1 inhibitor (LNCAP prostate cells) | sensitivity to PARP1 inhibitor (MCF7 breast cancer cells) | sensitivity to PARP1 inhibitor [1] | sensitivity to PARP1 inhibitor [2] | PCAT-14 expression [3] |
| --- | --- | --- | --- | --- | --- |
| C[C@]1(c2nc3c(C(N)=O)cccc3[nH]2)CCCN1 [ABT-888] | reduces sensitivity | does not recapitulate this effect | increases sensitivity | increases sensitivity | – |
| C[C@]1(O)CC[C@H]2[C@@H]3CCC4=CC(=O)CCC4=C3C=C[C@@]21C [R1881, methyltrienolone] | – | – | – | – | induced |

— patent publication US10407735B2, “Schlap-1 ncRNA and uses thereof” (THE REGENTS OF THE UNIVERSITY OF MICHIGAN, priority 2010, dated 2019)
